Source: PMC12469314, “Computational and Experimental Insights into Tyrosinase and Antioxidant Activities of Resveratrol and Its Derivatives: Molecular Docking, Molecular Dynamics Simulation, DFT Calculation, and In Vitro Evaluation” (International Journal of Molecular Sciences, 2025)

Experiments:
[1] = Ferric reducing antioxidant power (FRAP); details: 595 nm, FeSO4 calibration, mean ± SD
Procedure: A FRAP assay was performed based on the method in [46] with slight modifications. The FRAP solution reagent was prepared by combining 0.3 M acetate buffer, 10 mM TPTZ solution in 40 mM HCl, and 20 mM ferric chloride (FeCl3) solution in a 10:1:1 ratio. Next, 20 µL of the sample was added to 280 µL of the FRAP reagent, and the mixture was thoroughly mixed. Absorbance was then measured at 595 nm using a UV spectrophotometer. A calibration curve was constructed with ferrous sulfate (FeSO4), and the results were expressed as the equivalent of FeSO4/g.

mushroom tyrosinase = biological target: T1, mushroom tyrosinase (Agaricus bisporus, UniProt C7FF04); test: Anti-mushroom tyrosinase activity (DOPA-chrome method); type: biochemical
T1 construct: purchased Sigma-Aldrich
T1 sequence (C7FF04 1-392): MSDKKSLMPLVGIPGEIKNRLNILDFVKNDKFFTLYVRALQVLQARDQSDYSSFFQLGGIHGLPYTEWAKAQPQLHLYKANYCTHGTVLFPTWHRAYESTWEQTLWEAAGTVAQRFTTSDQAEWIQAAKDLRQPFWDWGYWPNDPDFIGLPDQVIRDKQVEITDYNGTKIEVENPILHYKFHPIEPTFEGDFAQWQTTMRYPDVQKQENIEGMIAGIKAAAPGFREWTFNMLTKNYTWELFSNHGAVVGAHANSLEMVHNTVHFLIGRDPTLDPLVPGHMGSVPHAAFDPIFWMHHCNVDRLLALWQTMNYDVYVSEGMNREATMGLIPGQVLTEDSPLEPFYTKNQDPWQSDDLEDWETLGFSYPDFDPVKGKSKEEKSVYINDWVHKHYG
Procedure: The inhibitory activity of the samples against mushroom tyrosinase was assessed using the DOPA-chrome method with some modifications. […] The assay was performed in a 96-well plate, in which the buffer was added to all wells, followed by 10% DMSO (50 μL) in the control and blank control wells. […] Next, 50 μL of tyrosinase solution was added to all wells except for the blank control and blank sample, followed by incubation at room temperature for 10 min. Subsequently, 50 μL of L-Dopa solution was added to all wells and incubated for 10 min at room temperature. Finally, the absorbance was measured at 492 nm using a UV spectrophotometer. […] All experiments were performed in triplicate.

[2] = DPPH radical scavenging activity; details: 30 min, 517 nm, mean ± SD
Procedure: The DPPH radical scavenging activity was determined according to the method in [45] with slight modifications. A 20 µL sample was added to a 96-well plate, followed by 0.1 mM DPPH dissolved in absolute ethanol. The mixtures were incubated in the dark at room temperature for 30 min, and their absorbance was measured at 517 nm with 3 replications using a UV spectrophotometer. The radical scavenging activity was calculated as follows:%radical scavenging = [(Acontrol − Asample)/Acontrol] × 100 where Acontrol = absorbance of the control, which contains an equal volume of DPPH and absolute ethanol, and Asample = absorbance of the sample or ascorbic acid standard, which contains an equal volume of DPPH and the sample solution. The percentage inhibition of the test solutions was calculated and plotted against their concentrations, along with the L-ascorbic acid standard, to generate a linear equation. The concentration required for IC50 was determined via interpolation from the linear equation.

[3] = ABTS radical scavenging activity; details: 7 min at 37 °C, 734 nm, mean ± SD
Procedure: ABTS radical scavenging activity was measured using the method described by Thaipong et al. (2006), with minor modifications. The ABTS solution was prepared by dissolving 7 mM ABTS and mixing it with potassium persulfate in a 2:1 ratio. The mixture was allowed to react in the dark for 12–16 h. Before use, the ABTS radical cation was diluted with ultrapure water to achieve an initial absorbance of around 0.70 ± 0.02 at 734 nm, as measured using a UV spectrophotometer. Sample solutions at various concentrations were then prepared by mixing 50 μL of each sample with 100 μL of the ABTS solution. The mixture was incubated in the dark for 7 min at 37 °C. After incubation, absorbance was measured at 734 nm. All tests were performed in triplicate, and the percentage of radical scavenging activity was calculated.

Row | SMILES | FRAP reducing power [1] | IC50 (mushroom tyrosinase) [µM] | IC50 [2] [µM] | IC50 [3] [µM]
1 | CC(=O)Oc1ccc(/C=C/c2cc(OC(C)=O)cc(OC(C)=O)c2)cc1 [Are, Acetyl-resveratrol] | very low reducing power | 396 ± 5.74 | > 1500 | –
2 | COc1ccc(/C=C\c2cc(OC)cc(OC)c2)cc1 [Cre, Cis-trismethoxy resveratrol] | very low reducing power | 532 ± 3.59 | > 1500 | –
3 | Oc1ccc(CCc2cc(O)cc(O)c2)cc1 [Dre, Dihydroresveratrol] | very low reducing power | 335 ± 7.98 | > 1500 | –
4 | O=C1O[C@H]([C@@H](O)CO)C(O)=C1O [L-ascorbic acid, reference compound] | – | – | – | 52.41 ± 0.06
5 | Oc1cc(O)cc(/C=C/c2ccc(O)cc2O)c1 [Ore, Oxyresveratrol] | 664.99 ± 42.62 μmol Fe(II)/g | 4.02 ± 0.46 | 38.1 ± 1.12 | 26.2 ± 0.57
6 | Oc1ccc(/C=C/c2cc(O)cc(O)c2)cc1 [Re, 3,4′,5-trihydroxy-trans-stilbene] | – | 517 ± 7.4 | – | –
